Assay results published in ChEMBL document CHEMBL2073748, “Na(+)-dependent carnitine transport by organic cation transporter (OCTN2): its pharmacological and toxicological relevance” (J Pharmacol Exp Ther, 1999).
Non-standard residues stand in square brackets, D forms with d. Residues, ends and D or L forms follow the SMILES beside them. Sar = CNCC(=O)O

Experiments:
[1] = biological target: T1, Organic cation/carnitine transporter 2 (Homo sapiens, UniProt O76082); assay: TP_TRANSPORTER: inhibition of Carnitine uptake (Carnitine: 0.010? uM, Gly-Sar: 500 uM) in OCTN2-expressing HEK293 cells; format: functional, cell-based; details: hek293, 500 µM
T1 sequence (O76082 whole entry): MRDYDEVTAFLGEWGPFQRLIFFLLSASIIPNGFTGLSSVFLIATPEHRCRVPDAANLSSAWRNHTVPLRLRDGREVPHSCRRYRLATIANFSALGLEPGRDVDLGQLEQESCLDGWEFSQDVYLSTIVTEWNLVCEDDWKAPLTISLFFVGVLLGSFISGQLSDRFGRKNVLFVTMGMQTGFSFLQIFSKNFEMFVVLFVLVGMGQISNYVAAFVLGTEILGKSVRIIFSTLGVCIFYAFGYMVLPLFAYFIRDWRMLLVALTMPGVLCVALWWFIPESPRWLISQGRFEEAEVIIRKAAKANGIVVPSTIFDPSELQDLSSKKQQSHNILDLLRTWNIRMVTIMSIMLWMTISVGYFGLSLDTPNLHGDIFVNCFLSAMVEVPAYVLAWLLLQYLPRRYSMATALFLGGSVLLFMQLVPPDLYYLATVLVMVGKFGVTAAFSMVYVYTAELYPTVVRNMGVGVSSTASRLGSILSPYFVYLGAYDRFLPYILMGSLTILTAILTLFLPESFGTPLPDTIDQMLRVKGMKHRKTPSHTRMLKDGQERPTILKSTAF

[2] = biological target: T2, OCTN2 (organic cation/carnitine transporter 2) (Homo sapiens, UniProt O76082); assay: TP_TRANSPORTER: inhibition of Carnitine uptake (Carnitine: 0.010? uM, GPFX: 500 uM) in OCTN2-expressing HEK293 cells; format: functional, cell-based; design: scale not given: the % may be the effect or the level left; details: HEK293 cells that express OCTN2, probe Carnitine, read-out: Activity
T2 sequence (O76082 whole entry): T1 sequence (O76082 whole entry)

[3] = biological target: T1, Organic cation/carnitine transporter 2; assay: (§1) TP_TRANSPORTER: uptake in OCTN2-expressing HEK293 cells; format: functional, cell-based
[4] = biological target: T1, Organic cation/carnitine transporter 2; assay: TP_TRANSPORTER: inhibition of Carnitine uptake (Carnitine: 0.010? uM, Guanidine: 500 uM) in OCTN2-expressing HEK293 cells; format: functional, cell-based; details: hek293, 500 µM
[5] = biological target: T2, OCTN2 (organic cation/carnitine transporter 2); assay: TP_TRANSPORTER: inhibition of Carnitine uptake (Carnitine: 0.010? uM, LFLX: 500 uM) in OCTN2-expressing HEK293 cells; format: functional, cell-based; design: scale not given: the % may be the effect or the level left; details: HEK293 cells that express OCTN2, probe Carnitine, read-out: Activity
[6] = biological target: T2, OCTN2 (organic cation/carnitine transporter 2); assay: in vitro; details: HEK293 cells that express OCTN2, probe Carnitine
Description: TP_TRANSPORTER: inhibition of Carnitine uptake (Carnitine: 0.010? uM, Nicotine: 500 uM) in OCTN2-expressing HEK293 cells

[7] = biological target: T2, OCTN2 (organic cation/carnitine transporter 2); assay: TP_TRANSPORTER: inhibition of Carnitine uptake (Carnitine: 0.010? uM, OFLX: 500 uM) in OCTN2-expressing HEK293 cells; format: functional, cell-based; design: scale not given: the % may be the effect or the level left; details: HEK293 cells that express OCTN2, probe Carnitine, read-out: Activity
[8] = biological target: T2, OCTN2 (organic cation/carnitine transporter 2); assay: TP_TRANSPORTER: inhibition of Carnitine uptake (Carnitine: 0.010? uM, Probenecid: 500 uM) in OCTN2-expressing HEK293 cells; format: functional, cell-based; design: scale not given: the % may be the effect or the level left; details: HEK293 cells that express OCTN2, probe Carnitine, read-out: Activity
[9] = biological target: T2, OCTN2 (organic cation/carnitine transporter 2); assay: TP_TRANSPORTER: inhibition of Carnitine uptake (Carnitine: 0.010? uM, Procainamide: 500 uM) in OCTN2-expressing HEK293 cells; format: functional, cell-based; design: scale not given: the % may be the effect or the level left; details: HEK293 cells that express OCTN2, probe Carnitine, read-out: Activity
[10] = biological target: T2, OCTN2 (organic cation/carnitine transporter 2); assay: TP_TRANSPORTER: inhibition of Carnitine uptake (Carnitine: 0.010? uM, Pyrilamine: 500 uM) in OCTN2-expressing HEK293 cells; format: functional, cell-based; design: scale not given: the % may be the effect or the level left; details: HEK293 cells that express OCTN2, probe Carnitine, read-out: Activity
[11] = biological target: T2, OCTN2 (organic cation/carnitine transporter 2); assay: TP_TRANSPORTER: inhibition of Carnitine uptake (Carnitine: 0.010? uM, Quinidine: 500 uM) in OCTN2-expressing HEK293 cells; format: functional, cell-based; design: scale not given: the % may be the effect or the level left; details: HEK293 cells that express OCTN2, probe Carnitine, read-out: Activity
[12] = biological target: T2, OCTN2 (organic cation/carnitine transporter 2); assay: TP_TRANSPORTER: inhibition of Carnitine uptake (Carnitine: 0.010? uM, Quinine: 500 uM) in OCTN2-expressing HEK293 cells; format: functional, cell-based; design: scale not given: the % may be the effect or the level left; details: HEK293 cells that express OCTN2, probe Carnitine, read-out: Activity
[13] = biological target: T2, OCTN2 (organic cation/carnitine transporter 2); assay: in vitro; details: HEK293 cells that express OCTN2, probe Carnitine; remark: listed apart in the source
Description: TP_TRANSPORTER: inhibition of Carnitine uptake (Carnitine: 0.010? uM, TEA: 500 uM) in OCTN2-expressing HEK293 cells

[14] = biological target: T2, OCTN2 (organic cation/carnitine transporter 2); assay: TP_TRANSPORTER: inhibition of Carnitine uptake (Carnitine: 0.010? uM, Trimethyllysine: 500 uM) in OCTN2-expressing HEK293 cells; format: functional, cell-based; design: scale not given: the % may be the effect or the level left; details: HEK293 cells that express OCTN2, probe Carnitine, read-out: Activity
[15] = biological target: T2, OCTN2 (organic cation/carnitine transporter 2); assay: TP_TRANSPORTER: inhibition of Carnitine uptake (Carnitine: 0.010? uM, Valproic acid: 500 uM) in OCTN2-expressing HEK293 cells; format: functional, cell-based; design: scale not given: the % may be the effect or the level left; details: HEK293 cells that express OCTN2, probe Carnitine, read-out: Activity
[16] = biological target: T2, OCTN2 (organic cation/carnitine transporter 2); assay: TP_TRANSPORTER: inhibition of Carnitine uptake (Carnitine: 0.010? uM, Verapamil: 500 uM) in OCTN2-expressing HEK293 cells; format: functional, cell-based; design: scale not given: the % may be the effect or the level left; details: HEK293 cells that express OCTN2, probe Carnitine, read-out: Activity
[17] = biological target: T1, Organic cation/carnitine transporter 2; assay: TP_TRANSPORTER: inhibition of Carnitine uptake (Carnitine: 0.010? uM, AZT: 500 uM) in OCTN2-expressing HEK293 cells; format: functional, cell-based; details: hek293, 500 µM
[18] = substrate: CC(=O)O[C@H](CC(=O)[O-])C[N+](C)(C)C; assay: as §1; format: functional, cell-based
[19] = substrate: C[N+](C)(C)CC(O)CC(=O)[O-]; assay: TP_TRANSPORTER: uptake, D-Carnitine in OCTN2-expressing HEK293 cells; format: functional, cell-based

Question: For `CN(CC(=O)O)C(=O)CN` [GLYCYLSARCOSINE] (H-Gly-[Sar]-OH), which Activity [1] is on record?
Answer: Its Activity is “is not an inhibitor [-]”.

Question: With `Cc1c(F)c(N2CCNC(C)C2)cc2c1c(=O)c(C(=O)O)cn2C1CC1` (centres undefined) [GREPAFLOXACIN] as the molecule, how does the activity at 500 µM [2] read?
Answer: The activity at 500 µM was 68.6%.

Question: How did the Activity [3] turn out when `N=C(N)N` [GUANIDINE] was run?
Answer: The Activity was “is not a substrate [-]”.

Question: What about the Activity [4] of the same molecule?
Answer: Its Activity is “is not an inhibitor [-]”.

Question: `CCn1cc(C(=O)O)c(=O)c2cc(F)c(N3CCNC(C)C3)c(F)c21` (centres undefined) [LOMEFLOXACIN] was tested. Which activity at 500 µM [5] did it give?
Answer: The activity at 500 µM was 88.6%.

Question: How did the activity at 500 µM [6] turn out when `CN1CCC[C@H]1c1cccnc1` [NICOTINE] was run?
Answer: The activity at 500 µM was 82.6%.

Question: How did the activity at 500 µM [7] turn out when `CC1COc2c(N3CCN(C)CC3)c(F)cc3c(=O)c(C(=O)O)cn1c23` (centres undefined) [OFLOXACIN] was run?
Answer: The activity at 500 µM was 76.8%.

Question: Which activity at 500 µM [8] does the source give for `CCCN(CCC)S(=O)(=O)c1ccc(C(=O)O)cc1` [PROBENECID] here?
Answer: The activity at 500 µM was 77.4%.

Question: How did the activity at 500 µM [9] turn out when `CCN(CC)CCNC(=O)c1ccc(N)cc1` [PROCAINAMIDE] was run?
Answer: Its activity at 500 µM is 65.8%.

Question: `COc1ccc(CN(CCN(C)C)c2ccccn2)cc1` [PYRILAMINE] was tested. Which Activity [3] did it give?
Answer: The Activity was “substrate [+]”.

Question: And the activity at 500 µM [10]?
Answer: The activity at 500 µM was 38.6%.

Question: For `C=C[C@H]1C[N@@]2CC[C@H]1C[C@@H]2[C@@H](O)c1ccnc2ccc(OC)cc12` [QUINIDINE], which Activity [3] is on record?
Answer: The Activity was “substrate [+]”.

Question: What about the activity at 500 µM [11] of the same molecule?
Answer: Its activity at 500 µM is 9.1%.

Question: Which activity at 500 µM [12] does the source give for `C=C[C@H]1C[N@@]2CC[C@H]1C[C@H]2[C@H](O)c1ccnc2ccc(OC)cc12` [QUININE] here?
Answer: Its activity at 500 µM is 7.1%.

Question: `CC[N+](CC)(CC)CC` [TETRYLAMMONIUM] was tested. Which Activity [3] did it give?
Answer: The Activity was “substrate [+]”.

Question: And the activity at 500 µM [13]?
Answer: Its activity at 500 µM is 53.6%.

Question: How did the activity at 500 µM [14] turn out when `C[N+](C)(C)CCCC[C@H](N)C(=O)O` [TRIMETHYLLYSINE] was run?
Answer: The activity at 500 µM was 69%.

Question: Which results are given for `CCCC(CCC)C(=O)O` [VALPROIC ACID]?
Answer: Activity [3]: substrate [+]; activity at 500 µM [15]: 82.3%

Question: For `COc1ccc(CCN(C)CCCC(C#N)(c2ccc(OC)c(OC)c2)C(C)C)cc1OC` (centres undefined) [VERAPAMIL], which Activity [3] is on record?
Answer: The Activity was “substrate [+]”.

Question: What about the activity at 500 µM [16] of the same molecule?
Answer: Its activity at 500 µM is 2.4%.

Question: For `Cc1cn([C@H]2C[C@H](N=[N+]=[N-])[C@@H](CO)O2)c(=O)[nH]c1=O` [ZIDOVUDINE], which Activity [17] is on record?
Answer: The Activity was “is not an inhibitor [-]”.

B1: Organic cation/carnitine transporter 2 (Homo sapiens) (protein)
chain: T1 sequence (O76082 whole entry)
Question: With B1 as the molecule, how does the Km [18] read?
Answer: The Km was 8.5 µM.

Question: What about the Km [19] of the same molecule?
Answer: The Km was 10.9 µM.
